Measurements: ChEMBL document CHEMBL1201862, “PubChem BioAssay data set” (2004)
Values joined by “and” are separate entries in the source; they are usually repeats but may differ in a detail not shown here. Equal entries are not always repeated.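 Values below derive from 48-hour exposures of cells grown in 96-well plates, with endpoints linearly interpolated between the two concentrations bracketing the appropriate inhibition level. GI50 = concentration required for 50% inhibition of growth.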 Active and inactive are the calls of the source. Rule as the data show it: active = GI50 up to about 1.1 µM and inactive = higher.

Key:
Assay in all cases: inhibition of tumour cell growth, NCI panel, 48 h
CAKI-1 = test system: CAKI-1
HCT-116 = test system: HCT-116
K562 = test system: K562
KM12 = test system: KM12
M14 = test system: M14
NCI-H226 = test system: NCI-H226
NCI-H522 = test system: NCI-H522
OVCAR-3 = test system: OVCAR-3
OVCAR-8 = test system: OVCAR-8
PC-3 = test system: PC-3
RXF 393 = test system: RXF 393
SF-295 = test system: SF-295
SK-MEL-2 = test system: SK-MEL-2
SNB-19 = test system: SNB-19
SR = test system: SR
U-251 = test system: U-251
UO-31 = test system: UO-31
HCC 2998 = test system: HCC 2998
MCF7 = test system: MCF7

Measured: GI50

O=C(O)c1oc(C(=O)O)c(C(=O)O)c1C(=O)O
inactive: CAKI-1 > 100 µM | HCT-116 > 100 µM | K562 > 100 µM | KM12 > 100 µM | M14 > 100 µM | NCI-H226 58.9 µM | NCI-H522 > 100 µM | OVCAR-3 > 100 µM | OVCAR-8 > 100 µM | PC-3 > 100 µM | RXF 393 > 100 µM | SF-295 > 100 µM | SK-MEL-2 > 100 µM | SNB-19 > 100 µM | SR > 100 µM | U-251 > 100 µM | UO-31 > 100 µM

CN(C)C(c1ccccc1)C1COC2Cc3ccccc3C1O2 (configuration not stated)
inactive: CAKI-1 > 100 µM | HCC 2998 > 100 µM | HCT-116 98.2 µM and 86.9 µM | K562 66.2 µM and 38.7 µM | KM12 > 100 µM | M14 > 100 µM | NCI-H226 72.9 µM | NCI-H522 > 100 µM | OVCAR-3 47.1 µM and 64 µM | OVCAR-8 > 100 µM | PC-3 99.3 µM and 76.4 µM | RXF 393 > 100 µM | SF-295 > 100 µM | SK-MEL-2 > 100 µM | SNB-19 > 100 µM | SR > 100 µM | U-251 > 100 µM | UO-31 > 100 µM

COC(=O)/C(=N/Nc1cccc(Cl)c1)C(C(=O)C(=O)Nc1cccc(Cl)c1C)c1nc2ccccc2nc1C (configuration not stated)
inactive: CAKI-1 52.6 µM | HCC 2998 43.8 µM | HCT-116 62.5 µM | K562 32.2 µM | KM12 80.7 µM | M14 53.5 µM | NCI-H522 > 100 µM | OVCAR-3 > 100 µM | OVCAR-8 > 100 µM | RXF 393 > 100 µM | SF-295 > 100 µM | SK-MEL-2 38.5 µM | SR 90.4 µM | UO-31 20.1 µM

CCOC(=O)C(NC(=O)NCc1ccc(F)cc1)C(F)(F)F (configuration not stated)
inactive: HCC 2998 > 100 µM | HCT-116 > 100 µM | K562 > 100 µM | M14 > 100 µM | OVCAR-8 > 100 µM | PC-3 > 100 µM | RXF 393 > 100 µM | SK-MEL-2 > 100 µM | SNB-19 > 100 µM | SR > 100 µM | U-251 > 100 µM | UO-31 > 100 µM

C/C(=N\O)c1ccc2cc(Br)c3ccccc3c2c1
inactive: CAKI-1 25.1 µM | HCC 2998 14.6 µM | HCT-116 11.9 µM | K562 46.8 µM | KM12 15.6 µM | M14 18.2 µM | MCF7 17.2 µM | NCI-H522 15.1 µM | OVCAR-3 16.9 µM | OVCAR-8 24.8 µM | RXF 393 14.8 µM | SF-295 15.6 µM | SK-MEL-2 15.8 µM | SNB-19 33.4 µM | SR 24.6 µM | U-251 14.6 µM | UO-31 15.7 µM

COc1ccc(/C=N/n2c(C)n[nH]c2=O)c(OC)c1
inactive: CAKI-1 > 100 µM | HCC 2998 > 100 µM | HCT-116 > 100 µM | K562 > 100 µM | KM12 > 100 µM | M14 > 100 µM | MCF7 > 100 µM | NCI-H226 > 100 µM | OVCAR-3 > 100 µM | OVCAR-8 > 100 µM | PC-3 > 100 µM | SF-295 > 100 µM | SK-MEL-2 > 100 µM | SNB-19 > 100 µM | U-251 > 100 µM | UO-31 > 100 µM

O=C(Nc1ccc2[nH]c(C(=O)N3CC(CCl)c4ccc([N+](=O)[O-])cc43)cc2c1)c1cc2ccccc2o1 (configuration not stated)
inactive: CAKI-1 > 1100 µM | HCC 2998 > 1100 µM | HCT-116 > 1100 µM | KM12 > 1100 µM | M14 > 1100 µM | MCF7 > 1100 µM | NCI-H226 > 1100 µM | NCI-H522 258 µM | OVCAR-3 > 1100 µM | OVCAR-8 > 1100 µM | RXF 393 > 1100 µM | SF-295 716 µM | SK-MEL-2 > 1100 µM | SNB-19 > 1100 µM | U-251 > 1100 µM | UO-31 > 1100 µM

CN1CCN(C2=C(Cl)C3(OCCS3)C(F)(F)C2(F)F)CC1 (configuration not stated)
inactive: CAKI-1 > 100 µM | HCT-116 > 100 µM | K562 29.8 µM | M14 > 100 µM | MCF7 > 100 µM | NCI-H226 > 100 µM | NCI-H522 > 100 µM | OVCAR-3 57 µM | OVCAR-8 > 100 µM | RXF 393 > 100 µM | SF-295 48.2 µM | SK-MEL-2 > 100 µM | SNB-19 > 100 µM | SR > 100 µM | U-251 39.8 µM | UO-31 55 µM

Cc1cc(NS(=O)(=O)c2ccc(Nc3c4ccccc4nc4c(C(=O)N5CCN(CCOS(C)(=O)=O)CC5)cccc34)cc2)no1
inactive: CAKI-1 > 100 µM | HCC 2998 > 100 µM | HCT-116 > 100 µM | K562 37.5 µM | KM12 > 100 µM | M14 > 100 µM | NCI-H226 > 100 µM | OVCAR-3 > 100 µM | OVCAR-8 > 100 µM | RXF 393 > 100 µM | SF-295 > 100 µM | SK-MEL-2 > 100 µM | SNB-19 > 100 µM | U-251 > 100 µM | UO-31 > 100 µM

CC(C)(Oc1ccccc1)C(=O)Sc1c(-c2ccccc2)c(=O)n(-c2ccccc2)c(=S)n1-c1ccccc1
inactive: CAKI-1 > 100 µM | HCC 2998 46.8 µM | HCT-116 50.1 µM | K562 41.4 µM | KM12 31.8 µM | M14 27 µM | MCF7 46.6 µM | NCI-H226 31.1 µM | NCI-H522 21.9 µM | OVCAR-3 32 µM | OVCAR-8 18.6 µM | RXF 393 26.4 µM | SF-295 59.8 µM | SNB-19 47.2 µM | SR 22.1 µM | U-251 21.6 µM | UO-31 65.3 µM

O=[N+]([O-])c1ccc2[nH]nc(OCc3ccccn3)c2c1
inactive: CAKI-1 > 100 µM | HCC 2998 > 100 µM | HCT-116 > 100 µM | K562 > 100 µM | KM12 > 100 µM | M14 > 100 µM | NCI-H226 > 100 µM | NCI-H522 > 100 µM | OVCAR-3 61 µM | OVCAR-8 > 100 µM | PC-3 > 100 µM | RXF 393 > 100 µM | SF-295 38.8 µM | SK-MEL-2 82.2 µM | SNB-19 50.5 µM | SR > 100 µM | U-251 99.8 µM | UO-31 > 100 µM

C[n+]1c(-c2ccc(/C=N/Nc3ccnc(N/N=C/c4ccc(-c5cn6ccccc6[n+]5C)cc4)n3)cc2)cn2ccccc21
inactive: HCC 2998 > 100 µM | HCT-116 20.7 µM | KM12 32.6 µM | M14 31.2 µM | NCI-H522 > 100 µM | OVCAR-8 82.4 µM | PC-3 > 100 µM | SF-295 17.9 µM | SNB-19 42.8 µM | SR 59.4 µM | UO-31 21.2 µM
